In patent EP0007672A1, “Isocyanoalkenes, process and useful intermediates for their preparation, pharmaceutical and fungicidal preparations containing those isocyanoalkenes and the use of the fungicidal preparations in agriculture” (GIST-BROCADES N.V., priority 1978, dated 1980):
≈ marks a conversion by molar mass, not a printed value. Where two headings read alike, the source gives them in different places.

Legend:
Assay in all cases: MIC (Minimum Inhibitory Concentration)
Format in all cases: cell-based
Candida albicans = test system: Candida albicans
Description: (§1) In addition they may be used for combatting plant diseases, in particular as fungicides. A list of MIC (Minimum Inhibitory Concentration) values for a number of microorganisms is listed herebelow. The figures in the column headings refer to the compounds prepared according to the experimental examples in comparison with the spectrum of 1-[2-(2,4-dichlorophenyl)-2-{(2,4-dichlorophenyl)-methoxy} -ethyl7-1H-imidazole (better known under the name of miconazole, c.f. Merck Index 9th Ed. page 6047) or natamycin (pimaricin, c.f. Merck Index 9th Ed. page 7233).

Pasteurella multocida = details: read-out: MIC values
Description: as §1

[1] = test system: Streptococcus haemolyticus; details: read-out: MIC values
Description: as §1

Trichophyton equinum = test system: Trichophyton equinum
Description: as §1

[2] = test system: Trichophyton mentagrophytus
Description: as §1

Trichophyton quickeaneum = details: read-out: MIC values
Description: as §1

Trichophyton rubrum = test system: Trichophyton rubrum
Description: as §1

[3] = test system: Trichophyton schoenleinii; details: read-out: MIC values
Description: as §1

Trichophyton tonsurans = details: read-out: MIC values
Description: as §1

Trichophyton verrucosum = test system: Trichophyton verrucosum
Description: as §1

Trichophyton violoceum = details: read-out: MIC values
Description: as §1

[4] = read-out: MIC values, Candida albicans A 7
[5] = read-out: MIC values, Candida albicans A 3140
[6] = read-out: MIC values, Candida albicans A 3141
[7] = read-out: MIC values, Candida albicans A 3142
[8] = read-out: MIC values, Candida albicans A 3143
[9] = read-out: MIC values, Candida albicans A 3144
[10] = read-out: MIC values, Candida albicans A 3145
[11] = read-out: MIC values, Candida albicans A 3165
[12] = read-out: MIC values, Candida albicans A 3166
[13] = read-out: MIC values, Candida albicans A 3167
[14] = read-out: MIC values, Candida albicans A 3168
[15] = read-out: MIC values, Candida albicans A 3169
[16] = read-out: MIC values, Candida albicans A 3171
[17] = read-out: MIC values, Candida albicans A 3184
[18] = read-out: MIC values, Candida albicans A 3190
[19] = read-out: MIC values, Candida albicans A 3191
[20] = read-out: MIC values, Candida albicans A 3192
[21] = read-out: MIC values, Candida albicans A 3194
[22] = read-out: MIC values, Candida albicans A 3196
[23] = read-out: MIC values, Trichophyton equinum 182-76
[24] = read-out: MIC values, Trichophyton equinum 441-51
[25] = read-out: MIC values, Trichophyton mentagrophytus 367-68
[26] = read-out: MIC values, Trichophyton mentagrophytus 421-67
[27] = read-out: MIC values, Trichophyton mentagrophytus A 3252
[28] = read-out: MIC values, Trichophyton mentagrophytus R 177
[29] = read-out: MIC values, Trichophyton mentagrophytus R 178
[30] = read-out: MIC values, Trichophyton rubrum 218-65
[31] = read-out: MIC values, Trichophyton rubrum 494-62
[32] = read-out: MIC values, Trichophyton rubrum A 810
[33] = read-out: MIC values, Trichophyton verrucosum 134-66
[34] = read-out: MIC values, Trichophyton verrucosum A 2922

## [C-]#[N+]C(C1=CCCCCCC1)S(=O)(=O)c1ccc(C)cc1 (stereo not drawn) [Example 20, α-(cycloocten-1-yl)-α-(4-toluenesulphonyl) methylisocyanide]
Candida albicans; [4]
  MIC: 6 µg/mL (≈ 19.8 µM)
Candida albicans; [5]
  MIC: 6 µg/mL (≈ 19.8 µM)
Candida albicans; [6]
  MIC: 6 µg/mL (≈ 19.8 µM)
Candida albicans; [7]
  MIC: 6 µg/mL (≈ 19.8 µM)
Candida albicans; [8]
  MIC: 6 µg/mL (≈ 19.8 µM)
Candida albicans; [9]
  MIC: 6 µg/mL (≈ 19.8 µM)
Candida albicans; [10]
  MIC: 6 µg/mL (≈ 19.8 µM)
Candida albicans; [11]
  MIC: 6 µg/mL (≈ 19.8 µM)
Candida albicans; [12]
  MIC: 6 µg/mL (≈ 19.8 µM)
Candida albicans; [13]
  MIC: 6 µg/mL (≈ 19.8 µM)
Candida albicans; [14]
  MIC: 6 µg/mL (≈ 19.8 µM)
Candida albicans; [15]
  MIC: 6 µg/mL (≈ 19.8 µM)
Candida albicans; [16]
  MIC: 6 µg/mL (≈ 19.8 µM)
Candida albicans; [17]
  MIC: 6 µg/mL (≈ 19.8 µM)
Candida albicans; [18]
  MIC: 6 µg/mL (≈ 19.8 µM)
Candida albicans; [19]
  MIC: 6 µg/mL (≈ 19.8 µM)
Candida albicans; [20]
  MIC: 6 µg/mL (≈ 19.8 µM)
Candida albicans; [21]
  MIC: 3 µg/mL (≈ 9.89 µM)
Candida albicans; [22]
  MIC: 6 µg/mL (≈ 19.8 µM)
Pasteurella multocida; Pasteurella multocida
  MIC: 50 µg/mL (≈ 165 µM)
[1]; Streptococcus
  MIC: 12.5 µg/mL (≈ 41.2 µM)
Trichophyton equinum; [23]
  MIC: 50 µg/mL (≈ 165 µM)
Trichophyton equinum; [24]
  MIC: 12.5 µg/mL (≈ 41.2 µM)
[2]; [25]
  MIC: 50 µg/mL (≈ 165 µM)
[2]; [26]
  MIC: 100 µg/mL (≈ 330 µM)
[2]; [27]
  MIC: 25 µg/mL (≈ 82.4 µM)
[2]; [28]
  MIC: 50 µg/mL (≈ 165 µM)
[2]; [29]
  MIC: > 100 µg/mL
Trichophyton quickeaneum; Trichophyton
  MIC: 25 µg/mL (≈ 82.4 µM)
Trichophyton rubrum; [30]
  MIC: 12.5 µg/mL (≈ 41.2 µM)
Trichophyton rubrum; [31]
  MIC: 12.5 µg/mL (≈ 41.2 µM)
Trichophyton rubrum; [32]
  MIC: 100 µg/mL (≈ 330 µM)
[3]; Trichophyton schoenleinii
  MIC: 12.5 µg/mL (≈ 41.2 µM)
Trichophyton tonsurans; Trichophyton tonsurans
  MIC: 0.75 µg/mL (≈ 2.47 µM)
Trichophyton verrucosum; [33]
  MIC: 6 µg/mL (≈ 19.8 µM)
Trichophyton verrucosum; [34]
  MIC: 6 µg/mL (≈ 19.8 µM)
Trichophyton violoceum; Trichophyton
  MIC: 12.5 µg/mL (≈ 41.2 µM)

## [C-]#[N+]C(=C(CCCC)c1ccccc1)S(=O)(=O)c1ccc(C)cc1 [Example 19, 2-phenyl-1-isocyano-1-(4-toluenesulphonyl)-1-hexene]
Candida albicans; Candida albicans A 7, read-out: MIC values
  MIC: 6 µg/mL (≈ 17.7 µM)
Candida albicans; Candida albicans A 3140, read-out: MIC values
  MIC: 6 µg/mL (≈ 17.7 µM)
Candida albicans; Candida albicans A 3141, read-out: MIC values
  MIC: 6 µg/mL (≈ 17.7 µM)
Candida albicans; Candida albicans A 3142, read-out: MIC values
  MIC: 6 µg/mL (≈ 17.7 µM)
Candida albicans; Candida albicans A 3143, read-out: MIC values
  MIC: 6 µg/mL (≈ 17.7 µM)
Candida albicans; Candida albicans A 3144, read-out: MIC values
  MIC: > 100 µg/mL
Candida albicans; Candida albicans A 3145, read-out: MIC values
  MIC: 6 µg/mL (≈ 17.7 µM)
Candida albicans; Candida albicans A 3165, read-out: MIC values
  MIC: 6 µg/mL (≈ 17.7 µM)
Candida albicans; Candida albicans A 3166, read-out: MIC values
  MIC: 6 µg/mL (≈ 17.7 µM)
Candida albicans; Candida albicans A 3167, read-out: MIC values
  MIC: 50 µg/mL (≈ 147 µM)
Candida albicans; Candida albicans A 3168, read-out: MIC values
  MIC: 6 µg/mL (≈ 17.7 µM)
Candida albicans; Candida albicans A 3169, read-out: MIC values
  MIC: 3 µg/mL (≈ 8.84 µM)
Candida albicans; Candida albicans A 3171, read-out: MIC values
  MIC: 3 µg/mL (≈ 8.84 µM)
Candida albicans; Candida albicans A 3184, read-out: MIC values
  MIC: 50 µg/mL (≈ 147 µM)
Candida albicans; Candida albicans A 3190, read-out: MIC values
  MIC: 6 µg/mL (≈ 17.7 µM)
Candida albicans; Candida albicans A 3191, read-out: MIC values
  MIC: > 100 µg/mL
Candida albicans; Candida albicans A 3192, read-out: MIC values
  MIC: 6 µg/mL (≈ 17.7 µM)
Candida albicans; Candida albicans A 3194, read-out: MIC values
  MIC: 6 µg/mL (≈ 17.7 µM)
Candida albicans; Candida albicans A 3196, read-out: MIC values
  MIC: 100 µg/mL (≈ 295 µM)
Pasteurella multocida; Pasteurella multocida A 723
  MIC: > 100 µg/mL
[1]; Streptococcus haemolyticus A 1088
  MIC: > 100 µg/mL
Trichophyton equinum; Trichophyton equinum 182-76, read-out: MIC values
  MIC: > 100 µg/mL
Trichophyton equinum; Trichophyton equinum 441-51, read-out: MIC values
  MIC: 3 µg/mL (≈ 8.84 µM)
[2]; Trichophyton mentagrophytus 367-68, read-out: MIC values
  MIC: > 100 µg/mL
[2]; Trichophyton mentagrophytus 421-67, read-out: MIC values
  MIC: > 100 µg/mL
[2]; Trichophyton mentagrophytus A 3252, read-out: MIC values
  MIC: > 100 µg/mL
[2]; Trichophyton mentagrophytus R 177, read-out: MIC values
  MIC: > 100 µg/mL
[2]; Trichophyton mentagrophytus R 178, read-out: MIC values
  MIC: > 100 µg/mL
Trichophyton quickeaneum; Trichophyton quickeaneum A 2040
  MIC: > 100 µg/mL
Trichophyton rubrum; Trichophyton rubrum 218-65, read-out: MIC values
  MIC: > 100 µg/mL
Trichophyton rubrum; Trichophyton rubrum 494-62, read-out: MIC values
  MIC: > 100 µg/mL
Trichophyton rubrum; Trichophyton rubrum A 810, read-out: MIC values
  MIC: > 100 µg/mL
[3]; Trichophyton schoenleinii 435-63
  MIC: > 100 µg/mL
Trichophyton tonsurans; Trichophyton tonsurans 561-50
  MIC: 0.4 µg/mL (≈ 1.18 µM)
Trichophyton verrucosum; Trichophyton verrucosum 134-66, read-out: MIC values
  MIC: 3 µg/mL (≈ 8.84 µM)
Trichophyton verrucosum; Trichophyton verrucosum A 2922, read-out: MIC values
  MIC: 3 µg/mL (≈ 8.84 µM)
Trichophyton violoceum; Trichophyton violoceum 442-62
  MIC: > 100 µg/mL

## [C-]#[N+]C(=C1CCSCC1)S(=O)(=O)c1ccc(C)cc1 [Example 16a, a-(thian-4-ylidene)-a-(4-toluenesulphonyl)-methylisocyanide]
Candida albicans; [4]
  MIC: 6 µg/mL (≈ 20.4 µM)
Candida albicans; [5]
  MIC: 6 µg/mL (≈ 20.4 µM)
Candida albicans; [6]
  MIC: 6 µg/mL (≈ 20.4 µM)
Candida albicans; [7]
  MIC: 6 µg/mL (≈ 20.4 µM)
Candida albicans; [8]
  MIC: 12.5 µg/mL (≈ 42.6 µM)
Candida albicans; [9]
  MIC: 12.5 µg/mL (≈ 42.6 µM)
Candida albicans; [10]
  MIC: 12.5 µg/mL (≈ 42.6 µM)
Candida albicans; [11]
  MIC: 6 µg/mL (≈ 20.4 µM)
Candida albicans; [12]
  MIC: 3 µg/mL (≈ 10.2 µM)
Candida albicans; [13]
  MIC: 3 µg/mL (≈ 10.2 µM)
Candida albicans; [14]
  MIC: 3 µg/mL (≈ 10.2 µM)
Candida albicans; [15]
  MIC: 12.5 µg/mL (≈ 42.6 µM)
Candida albicans; [16]
  MIC: 6 µg/mL (≈ 20.4 µM)
Candida albicans; [17]
  MIC: 12.5 µg/mL (≈ 42.6 µM)
Candida albicans; [18]
  MIC: 25 µg/mL (≈ 85.2 µM)
Candida albicans; [19]
  MIC: 25 µg/mL (≈ 85.2 µM)
Candida albicans; [20]
  MIC: 25 µg/mL (≈ 85.2 µM)
Candida albicans; [21]
  MIC: 25 µg/mL (≈ 85.2 µM)
Candida albicans; [22]
  MIC: 25 µg/mL (≈ 85.2 µM)
Pasteurella multocida; Pasteurella multocida
  MIC: 6 µg/mL (≈ 20.4 µM)
[1]; Streptococcus
  MIC: 25 µg/mL (≈ 85.2 µM)
Trichophyton equinum; [23]
  MIC: 25 µg/mL (≈ 85.2 µM)
Trichophyton equinum; [24]
  MIC: 3 µg/mL (≈ 10.2 µM)
[2]; [25]
  MIC: 25 µg/mL (≈ 85.2 µM)
[2]; [26]
  MIC: 50 µg/mL (≈ 170 µM)
[2]; [27]
  MIC: 25 µg/mL (≈ 85.2 µM)
[2]; [28]
  MIC: 12.5 µg/mL (≈ 42.6 µM)
[2]; [29]
  MIC: 100 µg/mL (≈ 341 µM)
Trichophyton quickeaneum; Trichophyton
  MIC: 12.5 µg/mL (≈ 42.6 µM)
Trichophyton rubrum; [30]
  MIC: 6 µg/mL (≈ 20.4 µM)
Trichophyton rubrum; [31]
  MIC: 25 µg/mL (≈ 85.2 µM)
Trichophyton rubrum; [32]
  MIC: 3 µg/mL (≈ 10.2 µM)
[3]; Trichophyton schoenleinii
  MIC: 6 µg/mL (≈ 20.4 µM)
Trichophyton tonsurans; Trichophyton tonsurans
  MIC: 0.4 µg/mL (≈ 1.36 µM)
Trichophyton verrucosum; [33]
  MIC: 3 µg/mL (≈ 10.2 µM)
Trichophyton verrucosum; [34]
  MIC: 1.5 µg/mL (≈ 5.11 µM)
Trichophyton violoceum; Trichophyton
  MIC: 6 µg/mL (≈ 20.4 µM)
